Test results from patent US10596127B2, “Composition for reducing the frequency of urination, method of making and use thereof” (WELLESLEY PHARMACEUTICALS, LLC, priority 2013, dated 2020).

Columns and labels:
[1] = system: expression of co-stimulatory molecules by Raw 264 macrophage cells; test: Flow cytometry of co-stimulatory molecules CD40 and CD80 on macrophages treated with analgesic, with or without LPS; format: cell-based, Murine; conditions: for effect on basal expression of co-stimulatory molecules CD40 and CD80 by macrophages: 5 × 10^5, 5 × 10^4, 5 × 10^3, 5 × 10^2, 50 and 5 nM
Description: Murine RAW264.7 or J774 macrophage cells (obtained from ATCC) were used in this study. Cells were maintained in a culture medium containing RPMI 1640 supplemented with 10% fetal bovine serum (FBS), 15 mM HEPES, 2 mM L-glutamine, 100 U/ml penicillin, and 100 μg/ml of streptomycin. Cells were cultured at 37° C. in a 5% CO2 atmosphere and split (passages) once a week.
RAW264.7 macrophage cells were seeded in 96-well plates at a cell density of 1.5×10^5 cells per well in 100 μl of the culture medium. […] Briefly, the analgesics were dissolved in FBS-free culture medium (i.e., RPMI 1640 supplemented with 15 mM HEPES, 2 mM L-glutamine, 100 U/ml penicillin, and 100 μg/ml of streptomycin), and diluted to desired concentrations by serial dilution with the same medium. For cells treated with analgesic in the absence of LPS, 50 μl of analgesic solution and 50 μl of FBS-free culture medium were added to each well. For cells treated with analgesic in the presence of LPS, 50 μl of analgesic solution and 50 μl of LPS (from Salmonella typhimurium) in FBS-free culture medium were added to each well. All conditions were tested in duplicates.
After 24 or 48 hours of culture, 150 μl of culture supernatants were collected, spun down for 2 min at 8,000 rpm at 4° C. to remove cells and debris and stored at −70° C. for analysis of cytokine responses by ELISA. The cells were collected and washed by centrifugation (5 min at 1,500 rpm at 4° C.) in 500 μl of Phosphate buffer (PBS). Half of the cells were then snap frozen in liquid nitrogen and stored at −70° C. The remaining cells were stained with fluorescent monoclonal antibodies and analyzed by flow cytometry.
For flow cytometry analysis, macrophages were diluted in 100 μl of FACS buffer (phosphate buffered saline (PBS) with 2% bovine serum albumin (BSA) and 0.01% NaN3) and stained 30 min at 4° C. by addition of FITC-conjugated anti-CD40, PE-conjugated anti-CD80, PE-conjugated anti-CD86 antibody, anti MHC class II (I-A^d) PE (BD Bioscience). Cells were then washed by centrifugation (5 min at 1,500 rpm at 4° C.) in 300 μl of FACS buffer. After a second wash, cells were re-suspended in 200 μl of FACS buffer and the percentage of cells expressing a given marker (single positive), or a combination of markers (double positive) were analyzed with the aid of an Accuri C6 flow cytometer (BD Biosciences).

[2] = system: COX2 expression by normal human bladder smooth muscle cells; test: Cell-based ELISA of total COX2 in normal human bladder smooth muscle cells; conditions: for effect on the effect of carbachol and LPS on COX2 levels: LPS-induced responses: analgesic at either 5 μM or 50 μM
Description: COX2 responses were analyzed by a Cell-Based ELISA using Human/mouse total COX2 immunoassay (R&D Systems), following the instructions of the manufacturer. Briefly, after cells fixation and permeabilization, a mouse anti-total COX2 and a rabbit anti-total GAPDH were added to the wells of the clear-bottom black 96-well cell culture microculture plates. After incubation and washes, an HRP-conjugated anti-mouse IgG and an AP-conjugated anti-rabbit IgG were added to the wells. Following another incubation and set of washes, the HRP- and AP-fluorogenic substrates were added. Finally, a Victor® V multilabel plate reader (PerkinElmer) was used to read the fluorescence emitted at 600 nm (COX2 fluorescence) and 450 nm (GAPDH fluorescence). Results are expressed as relative levels of total COX2 as determined by relative fluorescence unit (RFUs) and normalized to the housekeeping protein GAPDH.
Normal human bladder smooth muscle cells were isolated by enzymatic digestion from macroscopically normal pieces of human bladder. Cells were expended in vitro by culture at 37° C. in a 5% CO2 atmosphere in RPMI 1640 supplemented with 10% fetal bovine serum, 15 mM HEPES, 2 mM L-glutamine, 100 U/ml penicillin, and […] of streptomycin and passage once a week by treatment with trypsin to detach cells followed by reseeding in a new culture flask. The first week of culture, the culture medium was supplemented with 0.5 ng/ml epidermal growth factor, 2 ng/ml fibroblast growth factor, and 5 μg/ml insulin.
[…] When no other effectors were added to the cells, 50 μl of RPMI 1640 without fetal bovine serum were added to the wells to adjust the final volume to 200 μl.
After 24 hours of culture, 150 μl of culture supernatants were collected, spun down for 2 min at 8,000 rpm at 4° C. to remove cells and debris and stored at −70° C. for analysis of Prostaglandin E2 (PGE2) responses by ELISA. Cells were fixed, permeabilized and blocked for detection of COX2 using a fluorogenic substrate. In selected experiment cells were stimulated 12 hours in vitro for analysis of COX2, PGE2 and cytokine responses.
COX2 and PGE2 responses were analyzed as described in Example 3. Cytokine responses were analyzed as described in Example 2.

[3] = system: IL-6 secretion by normal human bladder smooth muscle cells; test: IL-6 ELISA of normal human bladder smooth muscle cell supernatants; format: cell-based
[4] = Inhibition of the urge to urinate in volunteer subjects; format: in vivo, human
Source text: Twenty volunteer subjects, both male and female were enrolled, each of which experienced premature urge or desire to urinate, interfering with their ability to sleep for a sufficient period of time to feel adequately rested. […] At least 14 subjects reported that they were able to rest better because they were not being awakened as frequently by the urge to urinate.

[5] = analgesic alone, 5 nM, negative control 20.6
[6] = analgesic alone, 50 nM, negative control 20.6
[7] = analgesic alone, 500 nM, negative control 20.6
[8] = analgesic alone, 5 × 10^3 nM, negative control 20.6
[9] = analgesic alone, 5 × 10^4 nM, negative control 20.6
[10] = analgesic alone, 5 × 10^5 nM, negative control 20.6
[11] = analgesic alone, 5 × 10^6 nM, negative control 20.6
[12] = analgesic plus LPS, analgesic 5 nM, LPS 5 ng/ml alone 77.8
[13] = analgesic plus LPS, analgesic 50 nM, LPS 5 ng/ml alone 77.8
[14] = analgesic plus LPS, analgesic 500 nM, LPS 5 ng/ml alone 77.8
[15] = analgesic plus LPS, analgesic 5 × 10^3 nM, LPS 5 ng/ml alone 77.8
[16] = analgesic plus LPS, analgesic 5 × 10^4 nM, LPS 5 ng/ml alone 77.8
[17] = analgesic plus LPS, analgesic 5 × 10^5 nM, LPS 5 ng/ml alone 77.8
[18] = analgesic plus LPS, analgesic 5 × 10^6 nM, LPS 5 ng/ml alone 77.8
[19] = Carbachol 10^−3 M plus analgesic 50 μM, carbachol alone 437, unstimulated 230, mean of duplicates
[20] = Carbachol 10^−3 M plus analgesic 50 μM, carbachol alone 462, unstimulated 199
[21] = LPS (10 μg/ml) plus analgesic 5 μM, LPS alone 633, unstimulated 199
[22] = LPS (10 μg/ml) plus analgesic 5 μM, LPS alone 672, unstimulated 230, mean of duplicates
[23] = LPS (10 μg/ml) plus analgesic 50 μM, LPS alone 633, unstimulated 199
[24] = LPS (10 μg/ml) plus analgesic 50 μM, LPS alone 672, unstimulated 230, mean of duplicates
[25] = LPS (10 μg/ml) plus analgesic 5 μM, LPS alone 4383
[26] = LPS (10 μg/ml) plus analgesic 5 μM, LPS alone 4838, mean of duplicates
[27] = LPS (10 μg/ml) plus analgesic 50 μM, LPS alone 4383
[28] = LPS (10 μg/ml) plus analgesic 50 μM, LPS alone 4838, mean of duplicates
[29] = stimulus alone, no analgesic (Carbachol 10^−3 M; LPS 10 μg/ml), unstimulated <5

| Compound | effect on expression of the co-stimulatory molecules at the highest dose ([1]; 5 × 10^6 nM) | effect on basal expression of co-stimulatory molecules CD40 and CD80 by macrophages [1] | % Positive CD40+CD80+ [1, 5] | % Positive CD40+CD80+ [1, 6] | % Positive CD40+CD80+ [1, 7] | % Positive CD40+CD80+ [1, 8] | % Positive CD40+CD80+ [1, 9] | % Positive CD40+CD80+ [1, 10] | % Positive CD40+CD80+ [1, 11] | % Positive CD40+CD80+ [1, 12] | % Positive CD40+CD80+ [1, 13] | % Positive CD40+CD80+ [1, 14] | % Positive CD40+CD80+ [1, 15] | % Positive CD40+CD80+ [1, 16] | % Positive CD40+CD80+ [1, 17] | % Positive CD40+CD80+ [1, 18] | IL-6 (pg/ml) Subject 2 [3, 25] | IL-6 (pg/ml) Subject 1 [3, 26] | IL-6 (pg/ml) Subject 2 [3, 27] | IL-6 (pg/ml) Subject 1 [3, 28] | also measured |
| --- | --- | --- | --- | --- | --- | --- | --- | --- | --- | --- | --- | --- | --- | --- | --- | --- | --- | --- | --- | --- | --- |
| CC(=O)Nc1ccc(O)cc1 [Acetaminophen, N-acetyl-para-aminophenol] | enhance | inhibit | 7.5% | 9.5% | 8.3% | 9.8% | 12% | 18% | 63% | 62.1% | 66.2% | 66.8% | 68.8% | 72.4% | 82.7% | 95.1% | 2308 pg/mL | 2012 pg/mL | 1983 pg/mL | 2018 pg/mL | Total COX2 levels (Normalized RFUs) subject 1 [2, 19]: 298 Normalized RFUs; Total COX2 levels (Normalized RFUs) subject 2 [2, 20]: 310 Normalized RFUs; Total COX2 levels (Normalized RFUs) subject 2 [2, 21]: 457 Normalized RFUs; Total COX2 levels (Normalized RFUs) subject 1 [2, 22]: 428 Normalized RFUs; Total COX2 levels (Normalized RFUs) subject 2 [2, 23]: 509 Normalized RFUs; Total COX2 levels (Normalized RFUs) subject 1 [2, 24]: 399 Normalized RFUs; effect on the effect of carbachol and LPS on COX2 levels [2]: suppress |
| C[N+](C)(C)CCOC(N)=O [Carbachol, carbachol] |  |  |  |  |  |  |  |  |  |  |  |  |  |  |  |  |  |  |  |  | COX2 responses to stimulus alone ([2]; no analgesic): induced low, but significant COX2 responses; Total COX2 levels (Normalized RFUs) subject 2 ([2]; stimulus alone, no analgesic (Carbachol 10^−3 M; LPS 10 μg/ml), unstimulated 199): 462 Normalized RFUs; Total COX2 levels (Normalized RFUs) subject 1 ([2]; stimulus alone, no analgesic (Carbachol 10^−3 M; LPS 10 μg/ml), unstimulated 230): 437 Normalized RFUs; IL-6 (pg/ml) Subject 1 [3, 29]: 232 pg/mL; IL-6 (pg/ml) Subject 2 [3, 29]: 278 pg/mL |
| CC(C)Cc1ccc(C(C)C(=O)O)cc1 (centres unmarked) [Ibuprofen, ibuprofen] | enhance | inhibit | 5.8% | 4.9% | 6.0% | 7.9% | 7.7% | 6.4% |  | 60.3% | 63.7% | 71.1% | 72.9% | 77.9% | 67% |  | 2173 pg/mL | 2063 pg/mL | 1991 pg/mL | 2021 pg/mL | benefit of less frequent urges to urinate after several weeks of nightly use ([4]; several subjects): no longer being realized; benefit after several days of abstaining from taking the dosages ([4]; subjects who had lost the benefit): return of the benefit; subjects who reported that they were able to rest better because they were not being awakened as frequently by the urge to urinate ([4]; twenty volunteer subjects, 400-800 mg as a single dose prior to bedtime): At least 14 subjects |
| CC(=O)Oc1ccccc1C(=O)O [Aspirin, Acetylsalicylic acid] | enhance | inhibit | 7.5% | 10.5% | 8% | 8.3% | 10.3% | 11% | 44% | 65.7% | 70.1% | 75.8% | 74.7% | 78.7% | 80% | 84.5% | 2089 pg/mL | 2199 pg/mL | 2010 pg/mL | 1987 pg/mL | Total COX2 levels (Normalized RFUs) subject 1 [2, 19]: 312 Normalized RFUs; Total COX2 levels (Normalized RFUs) subject 2 [2, 20]: 297 Normalized RFUs; Total COX2 levels (Normalized RFUs) subject 2 [2, 21]: 491 Normalized RFUs; Total COX2 levels (Normalized RFUs) subject 1 [2, 22]: 472 Normalized RFUs; Total COX2 levels (Normalized RFUs) subject 2 [2, 23]: 484 Normalized RFUs; Total COX2 levels (Normalized RFUs) subject 1 [2, 24]: 413 Normalized RFUs; effect on the effect of carbachol and LPS on COX2 levels [2]: suppress |
